Measurements published in patent US5648344A, “Methods of treating inflammation using selection binding compounds” (Glycomed Incorporated, priority 1992, dated 1997).

Legend:
ELAM-1 [1] = test: Adhesion of ELAM-transfected COS cells to glycolipids adsorbed to PVC microtiter wells or resolved on TLC plates (controlled detachment force); assay type: cell-based, human; conditions: ELAM-transfected COS cells as probes
Experimental: The invention also includes a method of assaying candidate ligands for their ability to adhere to ELAM-1. The method comprises attaching candidate ligands to a substrate surface and then contacting the substrate surface thereon with recombinant cells, that are genetically engineered to express high levels of ELAM-1, for a sufficient time to allow the cells to adhere to the substrate bearing the candidate ligand. […] Candidate ligands which adhere to ELAM-1 are determined via the labels on the cells. Such molecules are isolated, characterized, and their structure specifically identified. Accordingly, the invention also includes glycolipid ligands which can be isolated via such an assay procedure.
COS cells, expressing membrane-bound ELAM-1, were metabolically radiolabeled with ^32 PO4 and used as probes in two assay systems to screen for recognition of glycolipids. In the first, glycolipids were adsorbed to the bottoms of PVC microtiter wells, while in the second they were resolved on TLC plates. […]

ELAM-1 [2] = test: Inhibition by carbohydrates of ELAM-transfected COS cell adhesion to glycolipids; assay type: cell-based, human; conditions: for inhibition of cell adhesion to glycolipids: at 100 μg/ml, glycolipids eluted from DEAE-Sepharose with 5 mM potassium acetate; for inhibition of adhesion of ELAM-1 transfected COS cells to sialylated glycolipids: glycolipids resolved on TLC plates or adsorbed on PVC microtiter wells, concentration not given
Source text: Radiolabeled COS cells expressing cell surface ELAM-1 were used as probes to screen human leukocyte-derived glycolipids. ELAM-1 transfected COS cells adhered to a subset of sialylated glycolipids which were resolved on TLC plates or adsorbed on PVC microtiter wells. Adhesion to these glycolipids required calcium, but was not inhibited by heparin, chondroitin sulfate, keratin sulfate, or yeast phosphomannan (PPME).
COS cells, expressing membrane-bound ELAM-1, were metabolically radiolabeled with ^32 PO4 and used as probes in two assay systems to screen for recognition of glycolipids. In the first, glycolipids were adsorbed to the bottoms of PVC microtiter wells, while in the second they were resolved on TLC plates. In both assays these glycolipids were probed for their ability to support adhesion of ELAM-transfected COS cells, untransfected COS cells, or COS cells transfected with a plasmid containing an irrelevant cDNA, under conditions of controlled detachment force (see Swank-Hill, P., et al., Anal. Biochem. (1987) 183:27; and Blackburn, C. C., et al., J. Biol. Chem. (1986) 261:2873 each of which is incorporated herein by reference to disclose the details of such assaying methodology).
The material not retained on the column and in fractions eluted by step-wise increases in salt concentration (from 5 mM to 250 mM potassium acetate in methanol) were screened for cell adhesion.

Compound | recognition by / binding to ELAM-1 (ELAM-1 [1]) | inhibition of cell adhesion to glycolipids (ELAM-1 [2]) | inhibition of adhesion of ELAM-1 transfected COS cells to sialylated glycolipids (ELAM-1 [2])
CC(=O)N[C@H]1[C@H]([C@H](O)[C@H](O)CO)O[C@@](O[C@H]2[C@@H](O)[C@@H](CO)O[C@@H](O[C@H]3[C@H](O[C@@H]4O[C@@H](C)[C@@H](O)[C@@H](O)[C@@H]4O)[C@@H](NC(C)=O)C(O)O[C@@H]3CO)[C@@H]2O)(C(=O)O)C[C@@H]1O (stereo partly drawn) [Neu NAc α2-3Gal-β1-4(Fuc α1-3)-GlcNAc] | effectively bind to ELAM-1 | – | –
chondroitin sulfate | – | not inhibited | not inhibited
heparin | – | not inhibited | not inhibited
keratin sulfate | – | not inhibited | not inhibited
yeast phosphomannan | – | not inhibited | not inhibited
